Active and inactive are the calls of the source. The calls are words filed in the database; no cut-off is given here.
Assays:
[1] = system: Mycobacterium tuberculosis variant bovis; experiment: Antimycobacterial activity against Mycobacterium bovis BCG ATCC 35734 assessed as ATP leakage by measuring intracellular ATP at 1 MIC measured at 24 hrs post dose by luciferase reporter gene assay; type: functional, Mycobacterium tuberculosis variant bovis BCG
[2] = system: Mycobacterium tuberculosis variant bovis; experiment: Antimycobacterial activity against Mycobacterium bovis BCG ATCC 35734 assessed as ATP leakage by measuring extracellular ATP at 4 times MIC measured immediatey after addition of compounds by luciferase reporter gene assay; type: functional, Mycobacterium tuberculosis variant bovis BCG
[3] = system: Mycobacterium tuberculosis variant bovis; experiment: Antimycobacterial activity against Mycobacterium bovis BCG ATCC 35734 assessed as ATP leakage by measuring extracellular ATP at 0.5 times MIC measured at 1 hr post dose by luciferase reporter gene assay; type: functional, Mycobacterium tuberculosis variant bovis BCG
[4] = system: Mycobacterium tuberculosis variant bovis; experiment: Antimycobacterial activity against Mycobacterium bovis BCG ATCC 35734 assessed as ATP leakage by measuring extracellular ATP at 2 times MIC measured at 6 hrs post dose by luciferase reporter gene assay; type: functional, Mycobacterium tuberculosis variant bovis BCG
[5] = system: Mycobacterium tuberculosis variant bovis; experiment: Antimycobacterial activity against Mycobacterium bovis BCG ATCC 35734 assessed as ATP leakage by measuring intracellular ATP at 4 times MIC measured immediatey after addition of compounds by luciferase reporter gene assay; type: functional, Mycobacterium tuberculosis variant bovis BCG
[6] = system: Mycobacterium tuberculosis variant bovis; experiment: Antimycobacterial activity against Mycobacterium bovis BCG ATCC 35734 assessed as ATP leakage by measuring intracellular ATP at 1 MIC measured at 9 hrs post dose by luciferase reporter gene assay; type: functional, Mycobacterium tuberculosis variant bovis BCG
[7] = system: Mycobacterium tuberculosis variant bovis; experiment: Induction of membrane integrity impairment in Mycobacterium bovis BCG ATCC 35734 assessed as pH shift at 60 uM measured after 3 hrs by CMFDA dye based fluorescence spectroscopic method relative to control; type: functional, Mycobacterium tuberculosis variant bovis BCG
[8] = system: Mycobacterium tuberculosis variant bovis; experiment: Antimycobacterial activity against Mycobacterium bovis BCG ATCC 35734 assessed as ATP leakage by measuring intracellular ATP at 0.5 times MIC measured immediatey after addition of compounds by luciferase reporter gene assay; type: functional, Mycobacterium tuberculosis variant bovis BCG
[9] = system: Mycobacterium tuberculosis variant bovis; experiment: Antimycobacterial activity against Mycobacterium bovis BCG ATCC 35734 assessed as ATP leakage by measuring intracellular ATP at 2 times MIC measured at 9 hrs post dose by luciferase reporter gene assay; type: functional, Mycobacterium tuberculosis variant bovis BCG
[10] = system: Mycobacterium tuberculosis variant bovis; experiment: Antimycobacterial activity against Mycobacterium bovis BCG ATCC 35734 assessed as ATP leakage by measuring intracellular ATP at 2 times MIC measured at 6 hrs post dose by luciferase reporter gene assay; type: functional, Mycobacterium tuberculosis variant bovis BCG
[11] = system: Mycobacterium tuberculosis variant bovis; experiment: Bactericidal activity against Mycobacterium bovis BCG ATCC 35734 assessed as log reduction in bacterial colonies at 4 times MIC measured after 24 hrs by time-kill assay; type: functional, Mycobacterium tuberculosis variant bovis BCG
[12] = system: Mycobacterium tuberculosis variant bovis; experiment: Antimycobacterial activity against Mycobacterium bovis BCG ATCC 35734 assessed as ATP leakage by measuring intracellular ATP at 0.5 times MIC measured at 9 hrs post dose by luciferase reporter gene assay; type: functional, Mycobacterium tuberculosis variant bovis BCG
[13] = system: Mycobacterium tuberculosis variant bovis; experiment: Antimycobacterial activity against Mycobacterium bovis BCG ATCC 35734 assessed as ATP leakage by measuring intracellular ATP at 2 times MIC measured at 1 hr post dose by luciferase reporter gene assay; type: functional, Mycobacterium tuberculosis variant bovis BCG
[14] = system: Mycobacterium tuberculosis variant bovis; experiment: Antimycobacterial activity against Mycobacterium bovis BCG ATCC 35734 assessed as ATP leakage by measuring extracellular ATP at 2 times MIC measured at 1 hr post dose by luciferase reporter gene assay; type: functional, Mycobacterium tuberculosis variant bovis BCG
[15] = system: Mycobacterium tuberculosis variant bovis; experiment: Antimycobacterial activity against Mycobacterium bovis BCG ATCC 35734 assessed as ATP leakage by measuring extracellular ATP at 0.5 times MIC measured at 9 hrs post dose by luciferase reporter gene assay; type: functional, Mycobacterium tuberculosis variant bovis BCG
[16] = system: Mycobacterium tuberculosis variant bovis; experiment: Antimycobacterial activity against Mycobacterium bovis BCG ATCC 35734 assessed as ATP leakage by measuring extracellular ATP at 0.5 times MIC measured at 24 hrs post dose by luciferase reporter gene assay; type: functional, Mycobacterium tuberculosis variant bovis BCG
[17] = system: Mycobacterium tuberculosis variant bovis; experiment: Antimycobacterial activity against Mycobacterium bovis BCG ATCC 35734 assessed as ATP leakage by measuring intracellular ATP at 0.5 times MIC measured at 24 hrs post dose by luciferase reporter gene assay; type: functional, Mycobacterium tuberculosis variant bovis BCG
[18] = system: Mycobacterium tuberculosis variant bovis; experiment: Antimycobacterial activity against Mycobacterium bovis BCG ATCC 35734 assessed as ATP leakage by measuring intracellular ATP at 2 times MIC measured at 24 hrs post dose by luciferase reporter gene assay; type: functional, Mycobacterium tuberculosis variant bovis BCG
[19] = system: Mycobacterium tuberculosis variant bovis; experiment: Bactericidal activity against Mycobacterium bovis BCG ATCC 35734 assessed as log reduction in bacterial colonies measured up to 24 hrs by time-kill assay; type: functional
[20] = system: Mycobacterium tuberculosis variant bovis; experiment: Bactericidal activity against Mycobacterium bovis BCG ATCC 35734 measured after 14 days by time-kill assay; type: functional
[21] = system: Mycobacterium tuberculosis variant bovis; experiment: Bactericidal activity against Mycobacterium bovis BCG ATCC 35734 assessed as log reduction in bacterial colonies at 4 times MIC measured after 3 hrs by time-kill assay; type: functional, Mycobacterium tuberculosis variant bovis BCG
[22] = system: Mycobacterium tuberculosis variant bovis; experiment: Induction of membrane integrity impairment in Mycobacterium bovis BCG ATCC 35734 assessed as pH shift at 30 uM after 3 hrs by dye based fluorescence spectroscopic method relative to control; type: functional, Mycobacterium tuberculosis variant bovis BCG
[23] = system: Mycobacterium tuberculosis variant bovis; experiment: Induction of membrane disruption in Mycobacterium bovis BCG ATCC 35734 at 60 uM up to 3 hrs by Sytox green uptake assay; type: functional

Question: Which results are given for `COc1c(OCCCCN2CCOCC2)cc2oc3cc(OCCCCN4CCOCC4)c(CC=C(C)C)c(O)c3c(=O)c2c1CC=C(C)C`?
Answer: Activity [1]: 95.5%; Activity [2]: 14.3%; Activity [3]: 20.2%; Activity [4]: 27.4%; Activity [5]: 85.7%; Activity [6]: 86.5%; Activity [7]: 30%; Activity [8]: 100%; Activity [9]: 66.9%; Activity [10]: 72.6%; Activity [11]: 3.3; Activity [12]: 92.7%; Activity [13]: 83.3%; Activity [14]: 16.7%; Activity [15]: 7.3%; Activity [16]: 4.8%; Activity [17]: 95.2%; Activity [18]: 49.8%

Question: What does the source list for `CCCN(CCC)CCCCOc1cc2oc3cc(OCCCCN(CCC)CCC)c(OC)c(CC=C(C)C)c3c(=O)c2c(O)c1CC=C(C)C`?
Answer: Activity [1]: 62.5%; Activity [2]: 9.4%; Activity [3]: 25.1%; Activity [4]: 63.2%; Activity [5]: 90.6%; Activity [6]: 51.5%; Activity [19]: Dose-dependent effect; Activity [7]: 61.6%; Activity [8]: 100%; Activity [9]: 24.7%; Activity [10]: 36.8%; Activity [12]: 74.6%; Activity [13]: 89.9%; Activity [14]: 10.1%; Activity [15]: 25.4%; Activity [16]: 15.6%; Activity [20]: Dose-dependent effect; Activity [21]: 1.5; Activity [17]: 84.4%; Activity [18]: 29.5%; Activity [22]: 76.6%

Question: For `CCN(CC)CCCCOc1cc2oc3cc(OCCCCN(CC)CC)c(OC)c(CC=C(C)C)c3c(=O)c2c(O)c1CC=C(C)C`, which Activity [1] is on record?
Answer: 13.6%

Question: What about the Activity [2] of the same compound?
Answer: 10.5%

Question: What about the Activity [3] of the same compound?
Answer: 20.8%

Question: And the Activity [4]?
Answer: 91.9%

Question: And the Activity [5]?
Answer: 89.5%

Question: And the Activity [6]?
Answer: 14.7%

Question: And the Activity [7]?
Answer: 68.7%

Question: What about the Activity [8] of the same compound?
Answer: 100%

Question: What about the Activity [9] of the same compound?
Answer: 7.2%

Question: What about the Activity [10] of the same compound?
Answer: 8.1%

Question: And the Activity [23]?
Answer: Active

Question: And the Activity [12]?
Answer: 52.8%

Question: What about the Activity [13] of the same compound?
Answer: 57.6%

Question: What about the Activity [14] of the same compound?
Answer: 42.4%

Question: What about the Activity [15] of the same compound?
Answer: 47.2%

Question: And the Activity [16]?
Answer: 34.7%

Question: What about the Activity [17] of the same compound?
Answer: 65.3%

Question: What about the Activity [18] of the same compound?
Answer: 5.9%

Question: And the Activity [22]?
Answer: 20%
